Literature values in patent US20110144117A1, “Pharmaceutical Dosage Form Containing Tetrahydrobiopterin” (OrPha Swiss GmbH, priority 2008, published 2011).

Columns and labels:
[1] = in pure water
[2] = system: patient with a dihydrobiopterin deficiency; settings: single dose, patient with dihydrobiopterin deficiency (Niederwieser et al.)
[3] = system: patients exhibiting mutations in the PAH gene; settings: dietary supplementation, patients with mutations in the PAH gene (Kure et al.)

| solubility [1] | Structure (SMILES) | symptoms of hyperphenylalaninemia [2] | phenylalanine blood plasma concentration [3] |
| --- | --- | --- | --- |
| 0.17 g/100 g H2O | C[C@H](O)C(=O)C1=Nc2c(nc(N)[nH]c2=O)NC1 [L-sepiapterin] | transiently disappeared |  |
|  | CC(O)C(O)C1CNc2nc(N)[nH]c(=O)c2N1 (stereo not drawn) [tetrahydrobiopterin, 5,6,7,8-tetrahydro-biopterin] |  | reduces |
